≈ marks a conversion by molar mass, not a printed value.
Experiments:
Type in all cases: functional
[1] = tested on: Candida albicans; assay: Minimum inhibitory concentration against Candida albicans (CCH 442) in the presence of serum
[2] = tested on: Candida albicans; assay: Minimum inhibitory concentration against Candida albicans (ATCC 10231) in the absence of serum.
[3] = tested on: Candida albicans; assay: Minimum inhibitory concentration against Candida albicans (ATCC 10231) in the presence of serum
[4] = tested on: Candida albicans; assay: Minimum inhibitory concentration against Candida albicans (ATCC 38247) in the absence of serum.
[5] = tested on: Candida albicans; assay: Minimum inhibitory concentration against Candida albicans (ATCC 38247) in the presence of serum
[6] = tested on: Candida albicans; assay: Minimum inhibitory concentration against Candida albicans (ATCC 62376) in the absence of serum.
[7] = tested on: Candida albicans; assay: Minimum inhibitory concentration against Candida albicans (ATCC 62376) in the presence of serum
[8] = tested on: Candida albicans; assay: Minimum inhibitory concentration against Candida albicans (CCH 442) in the absence of serum.
[9] = tested on: Candida albicans; assay: Minimum inhibitory concentration against Candida albicans (579a) in the absence of serum.
[10] = tested on: Candida albicans; assay: Minimum inhibitory concentration against Candida albicans (579a) in the presence of serum

MIC [1] [µg/mL]	MIC [2] [µg/mL]	MIC [3] [µg/mL]	MIC [4] [µg/mL]	MIC [5] [µg/mL]	MIC [6] [µg/mL]	MIC [7] [µg/mL]	MIC [8] [µg/mL]	MIC [9] [µg/mL]	MIC [10] [µg/mL]	SMILES
3.12	> 100	3.12	> 100	1.56	> 100	1.56	> 100	> 100	0.78	CCCCC/C=C/C=C/[C@@H](O)C/C=C/C=C/C(=O)O[C@@H]1[C@@H](O)[C@H](c2c(O)cc(O)cc2CO)O[C@H](CO)[C@H]1O[C@@H]1O[C@H](COC(=O)c2ccc(CCCC)cc2)[C@H](O)[C@H](O)[C@H]1O[C@@H]1O[C@H](CO)[C@H](O)[C@H](O)[C@H]1O
6.25	> 100	12.5	> 100	6.25	> 100	12.5	> 100	> 100	6.25	CCCCC/C=C/C=C/[C@@H](O)C/C=C/C=C/C(=O)O[C@@H]1[C@@H](O)[C@H](c2c(O)cc(O)cc2CO)O[C@H](CO)[C@H]1O[C@@H]1O[C@H](COC(=O)c2ccc(-c3ccc(O)cc3)cc2)[C@H](O)[C@H](O)[C@H]1O[C@@H]1O[C@H](CO)[C@H](O)[C@H](O)[C@H]1O
3.12	50 (≈ 48.7 µM)	3.12	50 (≈ 48.7 µM)	1.56	100 (≈ 97.4 µM)	6.25	50 (≈ 48.7 µM)	50 (≈ 48.7 µM)	3.12	CCCCC/C=C/C=C/[C@@H](O)C/C=C/C=C/C(=O)O[C@@H]1[C@@H](O)[C@H](c2c(O)cc(O)cc2CO)O[C@H](CO)[C@H]1O[C@@H]1O[C@H](COC(=O)c2cccc3ccccc23)[C@H](O)[C@H](O)[C@H]1O[C@@H]1O[C@H](CO)[C@H](O)[C@H](O)[C@H]1O
1.56	50 (≈ 46.2 µM)	1.56	100 (≈ 92.3 µM)	1.56	25 (≈ 23.1 µM)	3.12	100 (≈ 92.3 µM)	50 (≈ 46.2 µM)	0.78	CCCCC/C=C/C=C/[C@@H](O)C/C=C/C=C/C(=O)O[C@@H]1[C@@H](O)[C@H](c2c(O)cc(O)cc2CO)O[C@H](CO)[C@H]1O[C@@H]1O[C@H](COC(=O)c2cccc(-c3ccc(OC)cc3)c2)[C@H](O)[C@H](O)[C@H]1O[C@@H]1O[C@H](CO)[C@H](O)[C@H](O)[C@H]1O
25	100 (≈ 84.7 µM)	25	> 100	50	100 (≈ 84.7 µM)	12.5	100 (≈ 84.7 µM)	100 (≈ 84.7 µM)	25	CCCCC/C=C/C=C/[C@@H](O)C/C=C/C=C/C(=O)O[C@@H]1[C@@H](O)[C@H](c2c(O)cc(O)cc2CO)O[C@H](CO)[C@H]1O[C@@H]1O[C@H](COC(=O)c2ccc(-c3ccc(OCCCCCCCC)cc3)cc2)[C@H](O)[C@H](O)[C@H]1O[C@@H]1O[C@H](CO)[C@H](O)[C@H](O)[C@H]1O
> 100	> 100	> 100	> 100	> 100	> 100	> 100	> 100	> 100	> 100	CCCCC/C=C/C=C/[C@@H](O)C/C=C/C=C/C(=O)O[C@@H]1[C@@H](O)[C@H](c2c(O)cc(O)cc2CO)O[C@H](CO)[C@H]1O[C@@H]1O[C@H](COC(C)=O)[C@H](O)[C@H](O)[C@H]1O[C@@H]1O[C@H](CO)[C@H](O)[C@H](O)[C@H]1O
0.78	25 (≈ 23.1 µM)	0.78	25 (≈ 23.1 µM)	0.78	25 (≈ 23.1 µM)	0.39	12.5 (≈ 11.6 µM)	25 (≈ 23.1 µM)	0.2	CCCCC/C=C/C=C/[C@@H](O)C/C=C/C=C/C(=O)O[C@@H]1[C@@H](O)[C@H](c2c(O)cc(O)cc2CO)O[C@H](CO)[C@H]1O[C@@H]1O[C@H](COC(=O)c2ccc(-c3ccc(CC)cc3)cc2)[C@H](O)[C@H](O)[C@H]1O[C@@H]1O[C@H](CO)[C@H](O)[C@H](O)[C@H]1O
